Experimental data reported in patent publication US11845760B2, “PRMT5 inhibitors” (AMGEN INC., priority 2020, dated 2023).
Where two headings read alike, the source gives them in different places.

Experiments:
HCT116 WT cells = assay: HCT116 WT cell line proliferation (CellTiter-Glo cell viability, 6 days); type: cell-based; settings: HCT116 WT (parent) cells, 6 days of treatment, CellTiter-Glo cell viability, read-out: HCT-116 WT IC50
Procedure, shortened: (§1)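 Isogenic HCT116 pair (parent and MTAP double-allele knockout) in RPMI 1640 + 10% FBS, exposed 6 days to compound: 8–9-point 1:3 dilutions from 1 or 10 μM top, or 22-point 1:2 dilutions from 10 or 50 μM top. CellTiter-Glo luminescence; IC50 from sigmoidal fit (Hill −1) or 4-parameter logistic.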

HCT116 MTAP null cells = assay: HCT116 MTAP null cell line proliferation (CellTiter-Glo cell viability, 6 days); type: cell-based; settings: HCT116 MTAP null cells, 6 days of treatment, CellTiter-Glo cell viability, read-out: HCT-116 MTAP null IC50
Procedure, shortened: as §1

SMILES | IC50 (HCT116 WT cells) | IC50 (HCT116 MTAP null cells) | IC50 (HCT116 WT cells; Homo sapiens, HCT-116, 144 h) | IC50 (HCT116 MTAP null cells; HCT116-MTAP null, 144 h)
C[C@@H]1COC[C@H](c2ccc(OC(F)F)c(F)c2)N1C(=O)c1cc2c3c(c(N)nc2cn1)COC3 (racemic) [Example 390, (4-amino-1,3-dihydrofuro[3,4-c][1,7]naphthyridin-8-yl)((3R,5S)-3-(4-(difluoromethoxy)-3-fluorophenyl)-5-methyl-4-morpholinyl)methanone and (4-amino-1,3-dihydrofuro[3,4-c][1,7]naphthyridin-8-yl)((3S,5R)-3-(4-(difluoromethoxy)-3-fluorophenyl)-5-methyl-4-morpholinyl)methanone] | 6360 nM | 165 nM |  | 
CCOc1ccc(C2COCCN2C(=O)c2cc3c4c(c(N)nc3cc2Cl)COC4)nn1 (racemic) [Example 391, (4-amino-7-chloro-1,3-dihydrofuro[3,4-c]quinolin-8-yl)((3R)-3-(6-ethoxy-3-pyridazinyl)-4-morpholinyl)methanone and (4-amino-7-chloro-1,3-dihydrofuro[3,4-c]quinolin-8-yl)((3S)-3-(6-ethoxy-3-pyridazinyl)-4-morpholinyl)methanone] |  |  | 3390 nM | 73 nM
CCOc1ccc(C2COCCN2C(=O)c2cc3c4c(c(N)nc3cc2F)COC4)nn1 (racemic) [Example 392, (4-amino-7-fluoro-1,3-dihydrofuro[3,4-c]quinolin-8-yl)((3R)-3-(6-ethoxy-3-pyridazinyl)-4-morpholinyl)methanone and (4-amino-7-fluoro-1,3-dihydrofuro[3,4-c]quinolin-8-yl)((3S)-3-(6-ethoxy-3-pyridazinyl)-4-morpholinyl)methanone] |  |  | > 10000 nM | 216 nM
CCOc1ccc([C@@H]2COCCN2C(=O)c2ccc3nc(N)c4c(c3c2)CO[C@@H]4C)nn1 (racemic) [Example 393, ((3R)-4-amino-3-methyl-1,3-dihydrofuro[3,4-c]quinolin-8-yl)((3R)-3-(6-ethoxy-3-pyridazinyl)-4-morpholinyl)methanone and ((3R)-4-amino-3-methyl-1,3-dihydrofuro[3,4-c]quinolin-8-yl)((3S)-3-(6-ethoxy-3-pyridazinyl)-4-morpholinyl)methanone] |  |  | > 50000 nM | 971 nM
Nc1nc2cc(F)c(C(=O)N3CCC(c4ccc(C(F)(F)F)cn4)C3)cc2c2c1COC2 (racemic) [Example 412, (4-amino-7-fluoro-1,3-dihydrofuro[3,4-c]quinolin-8-yl)((3R)-3-(5-(trifluoromethyl)-2-pyridinyl)-1-pyrrolidinyl)methanone and (4-amino-7-fluoro-1,3-dihydrofuro [3,4-c]quinolin-8-yl)((3S)-3-(5-(trifluoromethyl)-2-pyridinyl)-1-pyrrolidinyl)methanone] |  |  | 20800 nM | 725 nM
C[C@H]1OCc2c1c(N)nc1ccc(C(=O)N3C[C@@H](c4ccccc4)[C@H](c4ccccc4)C3)cc21 (racemic) [Example 431, ((3R)-4-amino-3-methyl-1,3-dihydrofuro[3,4-c]quinolin-8-yl)((3R,4R)-3,4-diphenyl-1-pyrrolidinyl)methanone and ((3R)-4-amino-3-methyl-1,3-dihydrofuro[3,4-c]quinolin-8-yl)((3S,4S)-3,4-diphenyl-1-pyrrolidinyl)methanone] |  |  | 11400 nM | 337 nM
C[C@H]1OCc2c1c(N)nc1ccc(C(=O)N3C[C@@H](c4ccc(F)cc4)[C@H](c4cc[nH]n4)C3)cc21 (racemic) [Example 434, ((3R)-4-amino-3-methyl-1,3-dihydrofuro[3,4-c]quinolin-8-yl)((3R,4S)-3-(4-fluorophenyl)-4-(1H-pyrazol-3-yl)-1-pyrrolidinyl)methanone and ((3R)-4-amino-3-methyl-1,3-dihydrofuro[3,4-c]quinolin-8-yl)((3S,4R)-3-(4-fluorophenyl)-4-(1H-pyrazol-3-yl)-1-pyrrolidinyl)methanone] |  |  | 8220 nM | 468 nM
Nc1nc2ncc(C(=O)N3CCOCC3c3ccc(C(F)(F)F)cc3)cc2c2c1COC2 (racemic) [Example 483, rac-(4-amino-1,3-dihydrofuro[3,4-c][1,8]naphthyridin-8-yl)(3-(4-(trifluoromethyl)phenyl)morpholino)methanone] |  |  | > 10000 nM | > 1000 nM
N#Cc1cnc(C2COCCN2C(=O)c2ccc3nc(N)c4c(c3c2)COC4)cc1Cl (racemic) [Example 492, 4-chloro-6-[rac-(3S)-4-(4-amino-1,3-dihydrofuro[3,4-c]quinoline-8-carbonyl)morpholin-3-yl]pyridine-3-carbonitrile] |  |  | 318 nM | 764 nM
Nc1nc2ccc(C(=O)N3CCOCC3c3ccccc3)cc2c2c1COC2 (racemic) [Example 493, (4-amino-1,3-dihydrofuro[3,4-c]quinolin-8-yl)-[rac-(3S)-3-phenylmorpholin-4-yl]methanone] |  |  | > 10000 nM | > 1000 nM
Nc1nc2cnc(C(=O)N3CCOCC3c3ccc(C(F)(F)F)cn3)cc2c2c1COC2 (racemic) [Example 494, (4-amino-1,3-dihydrofuro[3,4-c][1,7]naphthyridin-8-yl)-[rac-(3S)-3-[5-(trifluoromethyl)-2-pyridyl]morpholin-4-yl]methanone] |  |  | 14000 nM | 352 nM
Nc1nc2ccc(C(=O)N3CCOCC3c3ccc(OC(F)F)cc3)cc2c2c1COC2 (racemic) [Example 496, (4-amino-1,3-dihydrofuro[3,4-c]quinolin-8-yl)((3R)-3-(4-(difluoromethoxy)phenyl)-4-morpholinyl)methanone and (4-amino-1,3-dihydrofuro[3,4-c]quinolin-8-yl)((3S)-3-(4-(difluoromethoxy)phenyl)-4-morpholinyl)methanone] |  |  | 19800 nM | 486 nM
Cn1ncc2c3cc(C(=O)N4CCOCC4c4ccc(C(F)(F)F)cc4)ccc3nc(N)c21 (racemic) [Example 497, (4-amino-3-methyl-3H-pyrazolo[3,4-c]quinolin-8-yl)((3R)-3-(4-(trifluoromethyl)phenyl)-4-morpholinyl)methanone and (4-amino-3-methyl-3H-pyrazolo[3,4-c]quinolin-8-yl)((3S)-3-(4-(trifluoromethyl)phenyl)-4-morpholinyl)methanone] |  |  | 26000 nM | 477 nM
Cn1ncc2c3cc(C(=O)N4CCOCC4c4ccc(OC(F)(F)F)cc4)ccc3nc(N)c21 (racemic) [Example 498, (4-amino-3-methyl-3H-pyrazolo[3,4-c]quinolin-8-yl)((3R)-3-(4-(trifluoromethoxy)phenyl)-4-morpholinyl)methanone and (4-amino-3-methyl-3H-pyrazolo[3,4-c]quinolin-8-yl)((3S)-3-(4-(trifluoromethoxy)phenyl)-4-morpholinyl)methanone] |  |  | 21500 nM | 711 nM
Cn1ncc2c3cc(C(=O)N4CCOCC4c4ccc(C(F)(F)F)cn4)ccc3nc(N)c21 (racemic) [Example 499, (4-amino-3-methyl-3H-pyrazolo[3,4-c]quinolin-8-yl)((3R)-3-(5-(trifluoromethyl)-2-pyridinyl)-4-morpholinyl)methanone and (4-amino-3-methyl-3H-pyrazolo[3,4-c]quinolin-8-yl)((3S)-3-(5-(trifluoromethyl)-2-pyridinyl)-4-morpholinyl)methanone] |  |  | 36600 nM | 1100 nM
Nc1nc2ccc(C(=O)N3CCOCC3c3ccc(Br)nn3)cc2c2c1COC2 (racemic) [Example 500, (4-amino-1,3-dihydrofuro[3,4-c]quinolim-8-yl)-[rac-(3S)-3-(6-bromopyridazin-3-yl)morpholin-4-yl]methanone] |  |  | > 10000 nM | > 1000 nM
Nc1nc2cnc(C(=O)N3CCOCC3c3c(F)cc(Br)cc3F)cc2c2c1COC2 (racemic) [Example 505, (4-amino-1,3-dihydrofuro[3,4-c][1,7]naphthyridin-8-yl)((3R)-3-(4-bromo-2,6-difluorophenyl)-4-morpholinyl)methanone and (4-amino-1,3-dihydrofuro[3,4-c][1,7]naphthyridin-8-yl)((3S)-3-(4-bromo-2,6-difluorophenyl)-4-morpholinyl)methanone] |  |  | 21500 nM | 330 nM
Nc1nc2ccc(C(=O)N3CCOCC3c3ccc(CC(F)(F)F)cc3)cc2c2c1COC2 (racemic) [Example 508, (4-amino-1,3-dihydrofuro[3,4-c]quinolin-8-yl)((3R)-3-(4-(2,2,2-trifluoroethyl)phenyl)-4-morpholinyl)methanone and (4-amino-1,3-dihydrofuro[3,4-c]quinolin-8-yl)((3S)-3-(4-(2,2,2-trifluoroethyl)phenyl)-4-morpholinyl)methanone] |  |  | 6610 nM | 603 nM
Nc1nc2cnc(C(=O)N3CCOCC3c3ccc(CC(F)(F)F)cc3)cc2c2c1COC2 (racemic) [Example 509, (4-amino-1,3-dihydrofuro[3,4-c][1,7]naphthyridin-8-yl)((3R)-3-(4-(2,2,2-trifluoroethyl)phenyl)-4-morpholinyl)methanone and (4-amino-1,3-dihydrofuro[3,4-c][1,7]naphthyridin-8-yl)((3S)-3-(4-(2,2,2-trifluoroethyl)phenyl)-4-morpholinyl)methanone] |  |  | 10600 nM | 325 nM
Cc1ccc(C2COCCN2C(=O)c2ccc3nc(N)c4c(c3c2)COC4)cn1 (racemic) [Example 512, (4-amino-1,3-dihydrofuro[3,4-c]quinolin-8-yl)-[rac-(3R)-3-(6-methyl-3-pyridyl)morpholin-4-yl]methanone] |  |  | > 10000 nM | > 1000 nM
